Bridge positions count the residues as written; N and C are the ends. Square brackets hold non-standard residues; d marks the D form. Peptide text beside a SMILES is read from it. Trp(7-Me) = Cc1cccc2c(C[C@H](N)C(=O)O)c[nH]c12; 2Nal = N[C@@H](Cc1ccc2ccccc2c1)C(=O)O; AEF = NCCOc1ccc(C[C@H](N)C(=O)O)cc1; Cit = NC(=O)NCCC[C@H](N)C(=O)O; αMeL = CC(C)C[C@](C)(N)C(=O)O; Pen = CC(C)(S)[C@H](N)C(=O)O; αMeK = C[C@](N)(CCCCN)C(=O)O; βAla = NCCC(=O)O
How the values were obtained:
[1] = in vitro; conditions: human, 20% fecal homogenate (supernatant), anaerobic, pH 6.8
[2] = in vitro; conditions: both, SD, rat, plasma (EDTA)
[3] = in vitro; conditions: cynomolgus monkey, 20% fecal homogenate (supernatant), anaerobic, pH 6.8
[4] = test system: NK cells; assay: NK cell based assay (IL-23/IL-18-induced IFNγ, Quantikine ELISA); conditions: human primary NK cells, IL-23 at EC50 to EC75 + IL-18 10 ng/mL, IFNγ after 20 to 24 hours
Experimental: killer (NK) cells, purified from human peripheral blood of healthy donors by negative selection (Miltenyi Biotech, Cat #130-092-657), were cultured in complete media (RPMI 1640 containing […], L-glutamine and penicillin-streptomycin) in the presence of IL-2 (RnD, Cat #202-IL-010/CF) at 25 ng/mL. After 7 days, cells were centrifuged, and resuspended in complete media at IE6 cells/mL. […] After 20 to 24 hours, IFNγ in the supernatant was quantified using Quantikine ELISA (RnD, Cat #DIF50).

[5] = target: T1, IL-23R (Homo sapiens, UniProt Q5VWK5); assay: DB cells IL23R pSTAT3 cell assay (pStat3 HTRF); assay type: cell-based; conditions: Table E3; DB cells, IL-23 0.5 nM, 30 minutes at 37° C.; read-out: pStat3 HTRF (IC50)
T1 sequence (Q5VWK5 24-629): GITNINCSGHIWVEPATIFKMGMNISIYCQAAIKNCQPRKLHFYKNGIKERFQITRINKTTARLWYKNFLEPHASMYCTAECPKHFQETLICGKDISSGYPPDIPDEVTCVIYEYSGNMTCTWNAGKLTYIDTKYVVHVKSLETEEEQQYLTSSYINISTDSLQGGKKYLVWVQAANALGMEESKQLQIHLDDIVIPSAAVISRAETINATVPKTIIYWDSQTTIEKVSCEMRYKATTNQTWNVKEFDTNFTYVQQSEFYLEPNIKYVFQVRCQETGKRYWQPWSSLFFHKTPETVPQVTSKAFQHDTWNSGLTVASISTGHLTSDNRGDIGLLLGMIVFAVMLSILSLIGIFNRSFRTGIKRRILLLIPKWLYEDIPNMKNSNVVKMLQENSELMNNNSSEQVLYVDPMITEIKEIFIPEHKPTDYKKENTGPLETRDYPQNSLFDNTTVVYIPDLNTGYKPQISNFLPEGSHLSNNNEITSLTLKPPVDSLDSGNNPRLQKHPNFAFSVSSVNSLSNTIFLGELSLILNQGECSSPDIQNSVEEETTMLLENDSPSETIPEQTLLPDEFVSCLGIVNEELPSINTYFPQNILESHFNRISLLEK
Procedure, shortened: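 DB cells (5×10E5/well, RPMI-1640 + 10% FBS) stimulated with 0.5 nM final IL-23 plus serially diluted test peptides for 30 min at 37 °C, 5% CO2. Phospho-STAT3 (Tyr705) in lysates measured by HTRF using a two-plate protocol.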

| Structure (SMILES) | half-life at 20 μM [1] [h] | half-life at 20 μM [2] [h] | half-life at 20 μM [3] [h] | IC50 [4] [nM] | IC50 [5] [nM] |
| --- | --- | --- | --- | --- | --- |
| CC(=O)NCCCC[C@H](NC(=O)[C@](C)(CC(C)C)NC(=O)[C@H](Cc1ccc2ccccc2c1)NC(=O)[C@H](Cc1ccc(OCCN)cc1)NC(=O)[C@H]1NC(=O)[C@H](CCC(N)=O)NC(=O)[C@H](Cc2c[nH]c3c(C)cccc23)NC(=O)[C@H]([C@@H](C)O)NC(=O)[C@H](CC(N)=O)NC(=O)[C@@H](NC(C)=O)C(C)(C)SSC1(C)C)C(=O)N[C@@H](C)C(=O)NCCC(N)=O [compound 207] | > 24 | 2 | > 24 | < 10 | 1 to 10 |
| CC(=O)NCCCC[C@H](NC(=O)[C@](C)(CC(C)C)NC(=O)[C@H](Cc1ccc2ccccc2c1)NC(=O)[C@H](Cc1ccc(OCCN)cc1)NC(=O)[C@H]1NC(=O)[C@H](CCC(N)=O)NC(=O)[C@H](Cc2c[nH]c3c(C)cccc23)NC(=O)[C@H]([C@@H](C)O)NC(=O)[C@H](CC(N)=O)NC(=O)[C@@H](NC(C)=O)C(C)(C)SSC1(C)C)C(=O)N[C@@H](CC(C)C)C(=O)NCCC(N)=O [compound 208] | > 24 | 2 | > 24 | < 10 | 1 to 10 |
| CC[C@H](C)[C@H](NC(=O)[C@H](CCCCNC(C)=O)NC(=O)[C@](C)(CC(C)C)NC(=O)[C@H](Cc1ccc2ccccc2c1)NC(=O)[C@H](Cc1ccc(OCCN)cc1)NC(=O)[C@H]1NC(=O)[C@H](CCC(N)=O)NC(=O)[C@H](Cc2c[nH]c3c(C)cccc23)NC(=O)[C@H]([C@@H](C)O)NC(=O)[C@H](CC(N)=O)NC(=O)[C@@H](NC(C)=O)C(C)(C)SSC1(C)C)C(=O)NCCC(N)=O [compound 216] | > 24 | 13 | > 24 | 101 to 500 | 10 to 100 |
| CC(=O)NCCCC[C@H](NC(=O)[C@](C)(CC(C)C)NC(=O)[C@H](Cc1ccc2ccccc2c1)NC(=O)[C@H](Cc1ccc(OCCN)cc1)NC(=O)[C@H]1NC(=O)[C@H](CCC(N)=O)NC(=O)[C@H](Cc2c[nH]c3c(C)cccc23)NC(=O)[C@H]([C@@H](C)O)NC(=O)[C@H](CC(N)=O)NC(=O)[C@@H](NC(C)=O)C(C)(C)SSC1(C)C)C(=O)N[C@H](C(=O)NCCC(N)=O)[C@@H](C)O [compound 217] | > 24 | 2 | > 24 | 11 to 100 | 1 to 10 |
| CC(=O)NCCCC[C@H](NC(=O)[C@](C)(CC(C)C)NC(=O)[C@H](Cc1ccc2ccccc2c1)NC(=O)[C@H](Cc1ccc(OCCN)cc1)NC(=O)[C@H]1NC(=O)[C@H](CCC(N)=O)NC(=O)[C@H](Cc2c[nH]c3c(C)cccc23)NC(=O)[C@H]([C@@H](C)O)NC(=O)[C@H](CC(N)=O)NC(=O)[C@@H](NC(C)=O)C(C)(C)SSC1(C)C)C(=O)N(C)[C@@H](C)C(=O)NCCC(N)=O [compound 223] | > 24 | 9 | > 24 | < 10 | > 100 |
| CC(=O)NCCCC[C@H](NC(=O)[C@](C)(CC(C)C)NC(=O)[C@H](Cc1ccc2ccccc2c1)NC(=O)[C@H](Cc1ccc(OCCN)cc1)NC(=O)[C@H]1NC(=O)[C@H](CCC(N)=O)NC(=O)[C@H](Cc2c[nH]c3c(C)cccc23)NC(=O)[C@H]([C@@H](C)O)NC(=O)[C@H](CC(N)=O)NC(=O)[C@@H](NC(C)=O)C(C)(C)SSC1(C)C)C(=O)NCCC(=O)NCCC(N)=O [compound 226] | > 24 | 8 | > 24 | < 10 | 10 to 100 |
| CC(=O)NCCCC[C@H](NC(=O)[C@](C)(CCCCN)NC(=O)[C@H](Cc1ccc2ccccc2c1)NC(=O)[C@H](Cc1ccc(OCCN)cc1)NC(=O)[C@H]1NC(=O)[C@H](CCC(N)=O)NC(=O)[C@H](Cc2cn(C)c3ccccc23)NC(=O)[C@H]([C@@H](C)O)NC(=O)[C@H](CC(N)=O)NC(=O)[C@@H](NC(C)=O)C(C)(C)SSC1(C)C)C(=O)N[C@@H](CC(N)=O)C(=O)NCCC(N)=O [compound 232] | > 24 | > 24 | 10 | < 10 | 1 to 10 |
| CC(=O)NCCCC[C@H](NC(=O)[C@](C)(CC(C)C)NC(=O)[C@H](Cc1ccc2ccccc2c1)NC(=O)[C@H](Cc1ccc(OCCN)cc1)NC(=O)[C@H]1NC(=O)[C@](C)(CCCCN)NC(=O)[C@H](Cc2c[nH]c3c(C)cccc23)NC(=O)[C@H]([C@@H](C)O)NC(=O)[C@H](CC(N)=O)NC(=O)[C@@H](NC(C)=O)C(C)(C)SSC1(C)C)C(=O)N[C@@H](CC(N)=O)C(=O)NCCC(N)=O [compound 234] | > 24 | 7 | > 24 | < 10 | 1 to 10 |
| CC(=O)NCCCC[C@H](NC(=O)[C@](C)(CCCCN)NC(=O)[C@H](Cc1ccc2ccccc2c1)NC(=O)[C@H](Cc1ccc(OCCN)cc1)NC(=O)[C@H]1NC(=O)[C@](C)(CC(C)C)NC(=O)[C@H](Cc2c[nH]c3c(C)cccc23)NC(=O)[C@H]([C@@H](C)O)NC(=O)[C@H](CC(N)=O)NC(=O)[C@@H](NC(C)=O)C(C)(C)SSC1(C)C)C(=O)N[C@@H](CC(N)=O)C(=O)NCCC(N)=O [compound 235] (Ac-[Pen]NT[Trp(7-Me)][αMeL][Pen][AEF][2Nal][αMeK]K(Ac)N[βAla]-NH2; disulfide 1-6) | > 24 | 5 | > 24 | 11 to 100 | 1 to 10 |
| CC(=O)N[C@@H]1C(=O)N[C@@H](CC(N)=O)C(=O)N[C@@H]([C@@H](C)O)C(=O)N[C@@H](Cc2c[nH]c3c(C)cccc23)C(=O)N[C@@H](CCC(N)=O)C(=O)N[C@H](C(=O)N[C@@H](Cc2ccc(OCCN)cc2)C(=O)N[C@@H](Cc2ccc3ccccc3c2)C(=O)N[C@@](C)(CCCCN)C(=O)NC(C)(C)C(=O)N[C@@H](CC(N)=O)C(=O)NCCC(N)=O)C(C)(C)SSC1(C)C [compound 236] | > 24 | > 19.8 | > 24 | < 10 | 1 to 10 |
| CC(=O)NCCCC[C@H](NC(=O)[C@](C)(CCCCN)NC(=O)[C@H](Cc1ccc2ccccc2c1)NC(=O)[C@H](Cc1ccc(OCCN)cc1)NC(=O)[C@H]1NC(=O)[C@H](CCC(N)=O)NC(=O)[C@H](Cc2c[nH]c3c(C)cccc23)NC(=O)[C@H]([C@@H](C)O)NC(=O)[C@H](CCCNC(N)=O)NC(=O)[C@@H](NC(C)=O)C(C)(C)SSC1(C)C)C(=O)N[C@@H](CC(N)=O)C(=O)NCCC(N)=O [compound 238] (Ac-[Pen][Cit]T[Trp(7-Me)]Q[Pen][AEF][2Nal][αMeK]K(Ac)N[βAla]-NH2; disulfide 1-6) | > 24 | > 24 | 7 | < 10 | 1 to 10 |
| CC(=O)NCCCC[C@@H]1NC(=O)[C@@H](NC(C)=O)C(C)(C)SSC(C)(C)[C@@H](C(=O)N[C@@H](Cc2ccc(OCCN)cc2)C(=O)N[C@@H](Cc2ccc3ccccc3c2)C(=O)N[C@@](C)(CCCCN)C(=O)N[C@@H](CCCCNC(C)=O)C(=O)N[C@@H](CC(N)=O)C(=O)NCCC(N)=O)NC(=O)[C@H](CCC(N)=O)NC(=O)[C@H](Cc2c[nH]c3c(C)cccc23)NC(=O)[C@H]([C@@H](C)O)NC1=O [compound 239] | > 24 | > 24 | 7 | < 10 | 1 to 10 |
| CC(=O)NCCCC[C@@H]1NC(=O)[C@H](Cc2c[nH]c3c(C)cccc23)NC(=O)[C@H]([C@@H](C)O)NC(=O)[C@H](CC(N)=O)NC(=O)[C@@H](NC(C)=O)C(C)(C)SSC(C)(C)[C@@H](C(=O)N[C@@H](Cc2ccc(OCCN)cc2)C(=O)N[C@@H](Cc2ccc3ccccc3c2)C(=O)N[C@@](C)(CCCCN)C(=O)N[C@@H](CCCCNC(C)=O)C(=O)N[C@@H](CC(N)=O)C(=O)NCCC(N)=O)NC1=O [compound 242] | > 24 | > 24 | 8 | < 10 | < 1 |
